Assay [1] addresses T1, hOx1R (Homo sapiens (Human), UniProt O43613). Kind of assay: Calcium accumulation in cells (FLIPR), hOx1R. The format is cell-based. Particulars: for Ki: inhibition of orexin A induced calcium accumulation, Cheng and Prusoff correction; for inhibition at 10 µM: measured at a concentration of 10 μM of compound. The essentials: (§1)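 Cells expressing human orexin 1 or 2 receptor, serum-deprived overnight, loaded with Fluo-4-AM (2 μM) plus 0.1 mM probenecid, pH 7.4 HEPES buffer with 1% BSA.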

Assay [2] concerns the target T2, hOx2R (Homo sapiens (Human), UniProt O43614). Kind of assay: Calcium accumulation in cells (FLIPR), hOx2R. The assay is classed as cell-based. Particulars: for Ki: inhibition of orexin A induced calcium accumulation, Cheng and Prusoff correction; for inhibition at 10 µM: measured at a concentration of 10 μM of compound. In short, it runs like this:
as §1

Assay [3] deals with T1, hOx1R. Kind of assay: Radioligand binding assay, [3H]-SB649868, hOx1R. Particulars: radioligand [3H]-SB649868, competition. The procedure: (§2) For crude cell membrane preparations, cells (CHO, Chinese hamster ovary or HEK, human embryonic kidney) expressing human orexin 1 or human orexin 2 receptors, were washed with HEPES (10 mM, pH 7.5), scraped off the culture plates with the same buffer, and centrifuged at 4° C. for 5 min at 2500×g. The cell pellet was either stored at −80° C. or used directly. Before the experiments, cell membranes were re-suspended in binding assay buffer (10 mM HEPES, 0.5% (w/v) bovine serum albumin, pH 7.5) by homogenisation with a Polytron homogeniser at 50 Hz for 20 s. Cell membranes were also used as made available by commercial providers.
(§3) Bound radioactivity was measured, and data were analysed with the program XLFIT or Graphpad Prism. Protein concentration was determined according to the Bradford/BioRad Protein Assay Kit.
(§4) In competition experiments, cell homogenates (150 μl) were incubated in assay buffer (10 mM HEPES, pH 7.5, 0.5% (w/v) bovine serum albumin, 5 mM MgCl2, 1 mM CaCl2, and tween 0.05%) for 1 h at room temperature with about 1 nM of the radioligand [^3H]-SB649868, 66 Ci/mmole, 50 μl), and with various concentrations of compounds of the invention (50 μl) in triplicates; non-specific binding was determined in the presence of almorexant (10 μM).

Assay [4] deals with T2, hOx2R. Kind of assay: Radioligand binding assay, [3H]-SB649868, hOx2R. Particulars: radioligand [3H]-SB649868, competition. The method, then:
as §2, §3, §4

Structures are written as SMILES. Bounds are passed on as bounds.

Our source for the Ki, Kd and inhibition values is patent US8530648B2, “Diaza-spiro[5.5]undecanes” (Novartis AG, priority 2009, dated 2013).

T2 sequence (O43614 whole entry): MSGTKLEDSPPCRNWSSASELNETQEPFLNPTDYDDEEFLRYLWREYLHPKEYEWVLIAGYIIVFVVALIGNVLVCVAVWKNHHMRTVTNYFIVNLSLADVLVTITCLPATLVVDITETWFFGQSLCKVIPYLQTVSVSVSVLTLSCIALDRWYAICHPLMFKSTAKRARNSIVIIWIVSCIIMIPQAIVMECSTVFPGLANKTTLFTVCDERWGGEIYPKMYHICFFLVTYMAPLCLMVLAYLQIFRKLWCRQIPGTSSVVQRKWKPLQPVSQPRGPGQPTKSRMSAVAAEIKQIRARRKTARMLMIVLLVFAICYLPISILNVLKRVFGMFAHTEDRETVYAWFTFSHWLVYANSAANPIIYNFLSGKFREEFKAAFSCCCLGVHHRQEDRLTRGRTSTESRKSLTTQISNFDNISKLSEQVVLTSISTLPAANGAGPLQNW
T1 sequence (O43613 whole entry): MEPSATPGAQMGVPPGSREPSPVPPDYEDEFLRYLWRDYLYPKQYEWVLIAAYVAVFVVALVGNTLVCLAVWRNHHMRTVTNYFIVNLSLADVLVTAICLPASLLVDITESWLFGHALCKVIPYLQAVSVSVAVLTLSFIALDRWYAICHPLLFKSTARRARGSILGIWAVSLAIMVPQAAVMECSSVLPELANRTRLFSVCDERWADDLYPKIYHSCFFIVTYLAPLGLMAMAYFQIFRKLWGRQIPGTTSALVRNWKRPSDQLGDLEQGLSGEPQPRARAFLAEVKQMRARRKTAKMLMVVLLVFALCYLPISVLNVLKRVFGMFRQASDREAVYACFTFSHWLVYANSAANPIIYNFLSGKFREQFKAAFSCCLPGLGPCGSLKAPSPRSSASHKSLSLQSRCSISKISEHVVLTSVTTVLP

As for `O=C1N(Cc2c[nH]c3ccccc23)CCCC12CCN(c1ccc3ccccc3n1)CC2` [Example 160, 2-((1H-indol-3-yl)methyl)-9-(quinolin-2-yl)-2,9-diazaspiro[5.5]undecan-1-one], the values for the Ki on hOx1R [1] and on hOx2R [2] were 571 nM and 68 nM, respectively. In addition, the Kd (in general, a measure of binding affinity in units of concentration) at hOx1R [3] was 806 nM; at hOx2R [4] it was 111 nM.
Consider `O=C1N(Cc2ccccc2-n2nccn2)CCCC12CCN(c1cnc3ccccc3n1)CC2` [Example 49, 2-(2-(2H-1,2,3-triazol-2-yl)benzyl)-9-(quinoxalin-2-yl)-2,9-diazaspiro[5.5]undecan-1-one], for which the results for the Ki on hOx1R [1] and on hOx2R [2] were 2110 nM and 39 nM, respectively. Moreover, the Kd amounted to 3260 nM on hOx1R [3] and 115 nM on hOx2R [4].
With `Cc1noc(-c2cccc(CN3CCCC4(CCN(c5cnc6ccccc6n5)CC4)C3=O)c2)n1` [Example 104, 2-(3-(3-methyl-1,2,4-oxadiazol-5-yl)benzyl)-9-(quinoxalin-2-yl)-2,9-diazaspiro[5.5]undecan-1-one], the Ki (usually a dissociation constant, usually derived from enzyme kinetics or from competition with a known ligand) on hOx2R [2] was 106 nM. The molecule further registered a Kd at hOx2R [4] of 1370 nM.
In the case of `O=C1N(Cc2cc3ccccc3[nH]2)CCCC12CCN(c1cnc3ccccc3n1)CC2` [Example 121, 2-((1H-indol-2-yl)methyl)-9-(quinoxalin-2-yl)-2,9-diazaspiro[5.5]undecan-1-one], the Ki at hOx1R [1] is 2530 nM; on hOx2R [2] it was 1660 nM.
As for `Cc1cc(CN2CCCC3(CCN(c4cnc5ccccc5n4)CC3)C2=O)no1` [Example 88, 2-((5-methylisoxazol-3-yl)methyl)-9-(quinoxalin-2-yl)-2,9-diazaspiro[5.5]undecan-1-one], the inhibition – broadly, how much of the control response was suppressed – at 10 µM on hOx1R [1] turned out to be 11%; on hOx2R [2], 25%.
For `Cn1ccc2c(CN3CCCC4(CCN(c5cnc6ccccc6n5)CC4)C3=O)cccc21` [Example 26, 2-((1-methyl-1H-indol-4-yl)methyl)-9-(quinoxalin-2-yl)-2,9-diazaspiro[5.5]undecan-1-one], the Ki on hOx1R [1] is 614 nM; on hOx2R [2], 168 nM.
Turning to `COc1cc(CN2CCCC3(CCN(c4cnc5ccccc5n4)CC3)C2=O)ccn1` [Example 45, 2-((2-methoxypyridin-4-yl)methyl)-9-(quinoxalin-2-yl)-2,9-diazaspiro[5.5]undecan-1-one], the inhibition at 10 µM came to 19% on hOx1R [1] and 43% at hOx2R [2].
In the case of `Cn1nccc1-c1ccccc1CN1CCCC2(CCN(c3cnc4ccccc4n3)CC2)C1=O` [Example 148, 2-(2-(1-methyl-1H-pyrazol-5-yl)benzyl)-9-(quinoxalin-2-yl)-2,9-diazaspiro[5.5]undecan-1-one], the inhibition at 10 µM on hOx1R [1] amounted to 30%; at hOx2R [2], 32%.
As for `Cn1nc2ccccc2c1CN1CCCC2(CCN(c3cnc4ccccc4n3)CC2)C1=O` [Example 76, 2-((2-methyl-2H-indazol-3-yl)methyl)-9-(quinoxalin-2-yl)-2,9-diazaspiro[5.5]undecan-1-one], the inhibition at 10 µM on hOx1R [1] worked out at 44%. For the same molecule, the Ki at hOx2R [2] came out at 559 nM.
Regarding `O=C1N(Cc2ccc(Cl)nc2)CCCC12CCN(c1cnc3ccccc3n1)CC2` [Example 78, 2-((6-chloropyridin-3-yl)methyl)-9-(quinoxalin-2-yl)-2,9-diazaspiro[5.5]undecan-1-one], the inhibition at 10 µM at hOx1R [1] amounted to 15%; on hOx2R [2], 32%.
Turning to `Cc1cc(C)nc(CN2CCCC3(CCN(c4cnc5ccccc5n4)CC3)C2=O)c1` [Example 106, 2-((4,6-dimethylpyridin-2-yl)methyl)-9-(quinoxalin-2-yl)-2,9-diazaspiro[5.5]undecan-1-one], on hOx1R [1], the inhibition at 10 µM amounted to 35%. Also, the Ki on hOx2R [2] is 1360 nM.
Take `O=C1N(Cc2c[nH]c3ccccc23)CCCC12CCN(c1nc(-c3ccc(F)cc3)cs1)CC2` [Example 172, 2-((1H-indol-3-yl)methyl)-9-(4-(4-fluorophenyl)thiazol-2-yl)-2,9-diazaspiro[5.5]undecan-1-one]: the inhibition at 10 µM on hOx1R [1] amounted to 14%; at hOx2R [2], 20%.
As for `O=C1N(Cc2cnn3ccccc23)CCCC12CCN(c1cnc3ccccc3n1)CC2` [Example 79, 2-(pyrazolo[1,5-a]pyridin-3-ylmethyl)-9-(quinoxalin-2-yl)-2,9-diazaspiro[5.5]undecan-1-one], the inhibition constant (Ki) on hOx1R [1] amounted to 2150 nM; at hOx2R [2], 232 nM.
With `Cc1noc(-c2ccccc2)c1CN1CCCC2(CCN(c3cnc4ccccc4n3)CC2)C1=O` [Example 32, 2-((3-methyl-5-phenylisoxazol-4-yl)methyl)-9-(quinoxalin-2-yl)-2,9-diazaspiro[5.5]undecan-1-one], the Ki at hOx1R [1] is 1280 nM; on hOx2R [2] it was 138 nM.
Take `O=C1N(Cc2c[nH]c3ccccc23)CCCC12CCN(c1ccc(-c3nccs3)cn1)CC2` [Example 161, 2-((1H-indol-3-yl)methyl)-9-(5-(thiazol-2-yl)pyridin-2-yl)-2,9-diazaspiro[5.5]undecan-1-one]: on hOx1R [1], the inhibition at 10 µM came to 40%. In addition, the Ki on hOx2R [2] was 713 nM.
`O=C1N(Cn2nnc3ccccc32)CCCC12CCN(c1cnc3ccccc3n1)CC2` [Example 66, 2-((1H-benzo[d][1,2,3]triazol-1-yl)methyl)-9-(quinoxalin-2-yl)-2,9-diazaspiro[5.5]undecan-1-one]: the figures for the inhibition constant Ki at hOx1R [1] and at hOx2R [2] were 1710 nM and 302 nM, respectively.
For the molecule `O=C1N(Cc2cccnc2)CCCC12CCN(c1cnc3ccccc3n1)CC2` [Example 64, 2-(pyridin-3-ylmethyl)-9-(quinoxalin-2-yl)-2,9-diazaspiro[5.5]undecan-1-one], the inhibition at 10 µM on hOx1R [1] was found to be 32%. In addition, at hOx2R [2], the Ki was found to be 718 nM.
Consider `Cc1cc(C)cc(CN2CCCC3(CCN(c4cnc5ccccc5n4)CC3)C2=O)c1` [Example 16, 2-(3,5-dimethylbenzyl)-9-(quinoxalin-2-yl)-2,9-diazaspiro[5.5]undecan-1-one], for which the values for the Ki at hOx1R [1] and on hOx2R [2] were 1190 nM and 113 nM, respectively.
Turning to `O=C1N(Cc2nccc3ccccc23)CCCC12CCN(c1cnc3ccccc3n1)CC2` [Example 93, 2-(isoquinolin-1-ylmethyl)-9-(quinoxalin-2-yl)-2,9-diazaspiro[5.5]undecan-1-one], the Ki on hOx1R [1] came out at 1310 nM; on hOx2R [2], 158 nM.
For `O=C1N(Cc2ccncc2)CCCC12CCN(c1cnc3ccccc3n1)CC2` [Example 67, 2-(pyridin-4-ylmethyl)-9-(quinoxalin-2-yl)-2,9-diazaspiro[5.5]undecan-1-one], the inhibition at 10 µM on hOx1R [1] came out at 11%; on hOx2R [2] it was 27%.
`O=C1N(Cc2ccnc(Br)c2)CCCC12CCN(c1cnc3ccccc3n1)CC2` [Example 72, 2-((2-bromopyridin-4-yl)methyl)-9-(quinoxalin-2-yl)-2,9-diazaspiro[5.5]undecan-1-one]: the Ki stood at 3100 nM on hOx1R [1] and 452 nM at hOx2R [2].
Taken in the same sequence, the figures for `COCc1cccc(CN2CCCC3(CCN(c4cnc5ccccc5n4)CC3)C2=O)c1` [Example 80, 2-(3-(methoxymethyl)benzyl)-9-(quinoxalin-2-yl)-2,9-diazaspiro[5.5]undecan-1-one] were 2990 nM and 96 nM.
Consider `CC(C)c1nc(CN2CCCC3(CCN(c4cnc5ccccc5n4)CC3)C2=O)co1` [Example 176, 2-((2-isopropyloxazol-4-yl)methyl)-9-(quinoxalin-2-yl)-2,9-diazaspiro[5.5]undecan-1-one], for which the inhibition at 10 µM on hOx1R [1] and on hOx2R [2] was below 10% in each case.
Turning to `O=C1N(Cc2cccc(-c3ccncc3)c2)CCCC12CCN(c1cnc3ccccc3n1)CC2` [Example 58, 2-(3-(pyridin-4-yl)benzyl)-9-(quinoxalin-2-yl)-2,9-diazaspiro[5.5]undecan-1-one], the Ki on hOx1R [1] was found to be 570 nM; on hOx2R [2] it was 217 nM.
As for `O=C1N(Cc2nccn2Cc2ccccc2)CCCC12CCN(c1cnc3ccccc3n1)CC2` [Example 86, 2-((1-benzyl-1H-imidazol-2-yl)methyl)-9-(quinoxalin-2-yl)-2,9-diazaspiro[5.5]undecan-1-one], at hOx1R [1], the inhibition at 10 µM was 47%. The Ki on hOx2R [2] was 372 nM.
With `O=C1N(Cc2cccc3c2OCCN3)CCCC12CCN(c1cnc3ccccc3n1)CC2` [Example 132, 2-((3,4-dihydro-2H-benzo[b][1,4]oxazin-8-yl)methyl)-9-(quinoxalin-2-yl)-2,9-diazaspiro[5.5]undecan-1-one], the values for the Ki at hOx1R [1] and at hOx2R [2] were 3180 nM and 555 nM, respectively.
`O=C1N(Cc2cc(-n3cccn3)ccn2)CCCC12CCN(c1cnc3ccccc3n1)CC2` [Example 127, 2-((4-(1H-pyrazol-1-yl)pyridin-2-yl)methyl)-9-(quinoxalin-2-yl)-2,9-diazaspiro[5.5]undecan-1-one]: the Ki stood at 2340 nM at hOx1R [1] and 299 nM on hOx2R [2].
With `COc1ccc2[nH]c(N3CCC4(CCCN(Cc5c[nH]c6ccccc56)C4=O)CC3)nc2c1` [Example 159, 2-((1H-indol-3-yl)methyl)-9-(5-methoxy-1H-benzo[d]imidazol-2-yl)-2,9-diazaspiro[5.5]undecan-1-one], the inhibition at 10 µM on hOx1R [1] is 24%. On hOx2R [2], the Ki came out at 745 nM.
